Measurements published in PubChem BioAssay (NCI).
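Growth conditions: 96-well plates. Treatment: test compound, 48 hours, 5 concentrations. Analysis: linear interpolation between bracketing concentrations; unreached endpoints set to highest concentration. TGI denotes the concentration required for complete inhibition of growth.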

Tests used:
Test in all cases: growth of human tumour cells (NCI), 48 h
[1] = test system: 786-0 renal
[2] = test system: HOP-92 NSCLC
[3] = test system: CAKI-1 renal
[4] = test system: COLO 205 colon
[5] = test system: HT29 colon
[6] = test system: SK-MEL-5 melanoma
[7] = test system: MOLT-4 leukemia
[8] = test system: T-47D breast
[9] = test system: SF-268 CNS
[10] = test system: TK-10 renal
[11] = test system: UACC-62 melanoma
[12] = test system: OVCAR-3 ovarian
[13] = test system: NCI-H460 lung
[14] = test system: NCI-H23 lung
[15] = test system: SF-295 CNS
[16] = test system: ACHN renal

SMILES	TGI [1] [µM]	TGI [2] [µM]	TGI [3] [µM]	TGI [4] [µM]	TGI [5] [µM]	TGI [6] [µM]	TGI [7] [µM]	TGI [8] [µM]	TGI [9] [µM]	TGI [10] [µM]	TGI [11] [µM]	TGI [12] [µM]	TGI [13] [µM]	TGI [14] [µM]	TGI [15] [µM]	TGI [16] [µM]
COC(=O)[C@H](Cc1ccccc1)NC(=O)N1CCN(C(=O)N[C@@H](Cc2ccccc2)C(=O)OC)CCN(C(=O)N[C@@H](Cc2ccccc2)C(=O)OC)CC1	> 100	> 100	> 100	> 100	> 100	> 100	> 100	> 100	> 100	> 100	> 100	> 100	> 100	> 100	> 100	> 100
[N-]=[N+]=Nc1ccc2c(c1)Sc1ccccc1N2CCCCCl	> 100	> 100	> 100	82.3	> 100	59.8	> 100	> 100	> 100	> 100	> 100	> 100	> 100	> 100	> 100	> 100
CC1(C)C(=O)N=C(N)N1C(=O)OCc1ccccc1	> 100	> 100	> 100	> 100	> 100	> 100	> 100	> 100	> 100	> 100	> 100	> 100	> 100	> 100	> 100	> 100
OC1CC(O)c2c(Cl)sc(Cl)c21 (stereo unspecified)	> 100	56.2	> 100	33.4	> 100	> 100	> 100	> 100	> 100	82.3	> 100	70.8	65.2	67.3	87.3	> 100
CCN(CC)CCS(=O)c1c2cc(OC)ccc2nc2ccc(OC)cc12 (stereo unspecified)	4.35	> 24.3	23.9	3.99	12	32.3	> 21.2	4.04	23.5	11.7	36.8	15.6	> 82.2	41.3	44.2	5.44
COc1cc(-c2coc3c(OC)c(OC4OC(CO)C(O)C(O)C4O)c(OC)cc3c2=O)cc(OC)c1C (stereo unspecified)	> 100	38.4	31	> 54.2	35.1	27.8	> 36	45.1	21.5	> 70.3	17.2	> 100	> 70.1	14.1	28.5	30
CC1=C(OC2OC(CO)C(O)C(O)C2O)C(=O)C[C@H]2C1=CC[C@@H]1[C@@]2(C)C(=O)C[C@]2(C)[C@@H]([C@@](C)(O)C(=O)CCC(C)(C)O)[C@H](O)C[C@@]12C (stereo partly specified)	> 100	> 100	> 100	> 100	> 100	> 100	> 100	> 100	> 100	> 100	> 100	> 100	> 100	> 100	> 100	> 100
C=C1C(=O)C23CC1C[C@H](OC(C)=O)C2C1(C)C(OC(C)=O)C[C@H](O)C(C)(C)[C@H]1C(O)[C@@H]3OC(C)=O (stereo partly specified)	20.7	24.8	30.7	14.5	30	27.9	8.64	24.8	28.5	17	26.5	19.1	> 60	26.8	> 57.6	24.3
CC(=O)CCC[C@@H](C)[C@@H]1O[C@H]([C@@]2(C)CCC(=O)O2)C[C@H]2C(CSc3ccccc3)C(=O)O[C@@H]12 (stereo partly specified)	42.2	39.1	27.2	31.4	40.1	> 54.3	16	38	55.1	25.6	28.5	27.8	> 57.5	49.3	> 66	28.9
O=C1CC2(CCC(O)(c3ccc(Cl)cc3)C(C(=O)c3ccc(Cl)cc3)C2)C(=O)c2ccccc2N1 (stereo unspecified)	4.24	8.31	> 40.9	> 56.5	> 50	43.4	8.56	> 72.3	17	39.2	> 52.8	> 100	> 100	53.8	39.5	25.4
O=[N+]([O-])c1cccc2nccc(NCC(O)CO)c12 (stereo unspecified)	35	53.8	35.8	33.5	42	25.8	> 80.6	96.1	67.9	44	31.5	33.7	26.3	43.1	53.7	45.2
